Experimental findings from patent US11584763B2, “Chromenopyridine derivatives as phosphatidylinositol phosphate kinase inhibitors” (HIBERCELL, INC., priority 2017, dated 2023) are described below.

By IC50 is commonly meant the midpoint of a concentration-inhibition curve.

Assay [1] has as its target T1, PIP4K2B (Homo sapiens, UniProt P78356).
T1 construct: made in house; host or cells: E. coli
T1 sequence (P78356 1-416): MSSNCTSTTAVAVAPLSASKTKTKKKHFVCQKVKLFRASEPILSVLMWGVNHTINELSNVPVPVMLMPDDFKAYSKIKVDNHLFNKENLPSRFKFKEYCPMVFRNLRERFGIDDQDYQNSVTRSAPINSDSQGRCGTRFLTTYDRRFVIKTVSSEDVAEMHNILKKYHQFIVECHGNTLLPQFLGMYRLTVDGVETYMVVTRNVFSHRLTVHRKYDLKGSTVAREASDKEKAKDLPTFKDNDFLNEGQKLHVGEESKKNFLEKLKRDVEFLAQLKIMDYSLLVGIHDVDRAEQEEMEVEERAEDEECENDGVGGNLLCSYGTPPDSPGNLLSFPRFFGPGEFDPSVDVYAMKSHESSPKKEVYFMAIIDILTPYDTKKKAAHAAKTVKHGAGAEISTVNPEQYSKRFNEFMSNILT
The assay can be described thus: Trans-FI P kinase assay PIP4K2B (PIP4KtypeIIB inhibition assay). It counts as biochemical. The following applies: compounds listed under IC50 bin headings; 100 uM GTP; read-out: Trans-FI P kinase assays: PIP4K2B IC50. The text has this: GST tagged PIP4KtypeIIA and B enzymes were overexpressed in E. Coli and purified to >80% homogeneity. Phosphatidyl inositol-5-phosphate (PI5P, Cat. #850152, Avanti Polar Lipids Inc.) was used as the lipid substrate and phosphatidyl ethanolamine (DOPE 18:1, Cat. #850725, Avanti Polar Lipids Inc.) was used as the carrier lipid for assays. Ultrapure ATP and GTP was purchased from Bellbrooke Labs. ADP Glo reagents were obtained from Promega. Transcreener FI reagent was obtained from Bellbrooke labs.
GST-tagged PIP4KtypeIIB (3.4 uL, 2.77 mg/mL) was diluted to 5 mL using HNE buffer to yield 5× enzyme stock (25 nM)
Lipid Preparation: In a 10 mL pyrex glass vial, 1 ug of PI5P and 1 ug of DOPE were suspended in 2.5 mL of HEPES buffer mix and 2.5 mL of H:E buffer. The contents were mixed and sonicated for 3 min to yield a translucent lipid stock.
Compound Preparation: Compounds were stored as 5 mM stocks in neat DMSO as room temperature in glass vials. 5 mM stocks were diluted to 2 mM and then serially diluted (3×) in neat DMSO in 96 well polypropylene plates. From the serially diluted stocks, 3 uL was delivered into 250 uL of 25% DMSO (in water) to generate 5× compound stocks. Typically, the highest compound conc. was 24 uM.
The assay volume was kept at 25 uL. To each well of the reaction plate, 10 uL of lipid stock (1:1 ratio PI5P:DOPE) was delivered. This was followed by the addition of 5 uL of compound in 25% DMSO. Then, to each well, 5 uL of 25 nM (5×) typeIIB enzyme was delivered. The contents were mixed well and incubated for 1 h at 27 C. After 1 h, reaction was initiated by adding 5 uL of 500 uM GTP and the contents were mixed well with a multi-channel pipetteman. The final concentration of the reagents are as follows: 50 mM HEPES, pH 7.3, 10 mM MgCl2, 20 mM NaCl, 0.01% v/v triton-X100, 5% DMSO, 100 uM GTP, 80 uM (2 ug) PI5P, 2 ug DOPE, and 5 nM PIP4KIIB Typically, the highest conc. of compounds was 4.8 uM and the lowest conc. was 0.
After 2 h, the reaction was quenched by adding 25 uL of transcreener FI reagent. The contents were incubated at RT for 1 h and the Fluorescence (Ex: 584 Em: 623) was read using Molecular Devices Paradigm plate reader. […] The blanks were averaged and subtracted from all other wells. Using a calibration curve, RFU was converted to uM GDP (product). IC50 was calculated by plotting the residual activity (expressed as % No inhibitor control) vs. log [Inh. conc.]

The target in assay [2] is T2, PIP4K 2A (Homo sapiens, UniProt P48426).
T2 sequence (P48426 1-406): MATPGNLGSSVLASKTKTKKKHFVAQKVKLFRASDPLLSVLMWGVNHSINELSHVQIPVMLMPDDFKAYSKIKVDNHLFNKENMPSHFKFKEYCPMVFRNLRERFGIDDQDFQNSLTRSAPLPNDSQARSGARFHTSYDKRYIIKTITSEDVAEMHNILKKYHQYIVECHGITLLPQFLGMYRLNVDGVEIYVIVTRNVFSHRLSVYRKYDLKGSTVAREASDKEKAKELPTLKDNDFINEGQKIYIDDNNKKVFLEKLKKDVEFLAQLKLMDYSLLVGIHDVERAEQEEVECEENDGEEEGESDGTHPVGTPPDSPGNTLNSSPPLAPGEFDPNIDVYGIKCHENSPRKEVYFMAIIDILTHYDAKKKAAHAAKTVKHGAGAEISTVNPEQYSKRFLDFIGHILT
The assay can be described thus: ADP-glo kinase assay PIP4K 2A. The note with it: compounds listed under IC50 bin headings. Further details: 4 nM PIP4K2A (full length protein, SignalChem); purchased SignalChem. Type of assay: biochemical. How it is done: Dilution series of the compounds were prepared in DMSO at 100 times the final assay concentration (n1=n0/3 in 10 points). The compounds were further diluted to three times the assay concentration in assay buffer (20 mM MOPS pH 7.2, 25 mM magnesium chloride, 0.005% Tween 20). 6 μL of the diluted compounds were added to a 384 well assay plate followed by 9 μL of a mix consisting of 4 nM PIP4K2A (full length protein, SignalChem) and 100 μM PI(5)P diC8 (Tebu-Bio). Enzyme and compounds were pre-incubated at room temperature for 15 minutes.
Then 3 μL of a solution containing 60 μM ATP (Promega) in assay buffer was added to the wells containing compound and enzyme and mixing was performed by pipetting several times. The reaction was incubated at room temperature for 1 h. Then 18 μL of ADP-Glo™ Reagent (Promega) was added to stop the kinase reaction and deplete the unconsumed ATP, mixing was performed by pipetting several times. The plate was incubated at room temperature for 40 minutes before addition of 36 μL of Kinase Detection Reagent (Promega) to convert ADP to ATP and introduce luciferase and luciferin to detect ATP. The reaction was incubated at room temperature for 40 minutes before the luminescence was measured in a in a Victor 3V 1420 multilabel counter (Perkin Elmer).
Percent inhibition of the compounds as compared to dimethyl sulfoxide treated control samples was calculated. Compound concentration versus percent inhibition were fitted to generate IC50 values.
A general note: ADP-Glo turns the ADP formed in a reaction into a luminescent signal.

With `CC1Oc2cc(N3CCCC3=O)ccc2-c2cnc(Nc3cnc4cccc(S(C)(=O)=O)c4c3)cc21` (centres unmarked) [Example 92, 1-(5-methyl-3-((5-(methylsulfonyl)quinolin-3-yl)amino)-5H-chromeno[4,3-c]pyridin-8-yl)pyrrolidin-2-one], the IC50 in assay [1] is greater than 1000 nM; in assay [2], 1 to 10 nM.
The like results for `COC(=O)Nc1cncc(Nc2cc3c(cn2)-c2ccc(N4CCCC4=O)cc2OC3C)c1` (centres unmarked) [Example 98, methyl (5-((5-methyl-8-(2-oxopyrrolidin-1-yl)-5H-chromeno[4,3-c]pyridin-3-yl)amino)pyridin-3-yl)carbamate] were, in that order, 10 to 100 nM and 1 to 10 nM.
The like results for `CNC(=O)Nc1cncc(Nc2cc3c(cn2)-c2ccc(N4CCCC4=O)cc2OC3C)c1` (centres unmarked) [Example 99, 1-methyl-3-(5-((5-methyl-8-(2-oxopyrrolidin-1-yl)-5H-chromeno[4,3-c]pyridin-3-yl)amino)pyridin-3-yl)urea] were, in that order, 10 to 100 nM and 1 to 10 nM.
The like results for `CC1Oc2cc(N3CCCC3=O)ccc2-c2cnc(Nc3cncc(NC(=O)CO)c3)cc21` (centres unmarked) [Example 101, 2-hydroxy-N-(5-((5-methyl-8-(2-oxopyrrolidin-1-yl)-5H-chromeno[4,3-c]pyridin-3-yl)amino)pyridin-3-yl)acetamide] were, in that order, 10 to 100 nM and 1 to 10 nM.
Turning to `CC1Oc2cc(N3CCCC3=O)ccc2-c2cnc(Nc3cncc(NC(=O)Nc4ccccn4)c3)cc21` (centres unmarked) [Example 102, 1-(5-((5-methyl-8-(2-oxopyrrolidin-1-yl)-5H-chromeno[4,3-c]pyridin-3-yl)amino)pyridin-3-yl)-3-(pyridin-2-yl)urea], the IC50 in assay [1] lay within 10 to 100 nM; in assay [2], 1 to 10 nM.
On the same counts, the results for `CC1Oc2cc(N3CCCC3=O)ccc2-c2cnc(Nc3cncc(NC(=O)C4CCNC4=O)c3)cc21` (centres unmarked) [Example 104, N-(5-((5-methyl-8-(2-oxopyrrolidin-1-yl)-5H-chromeno[4,3-c]pyridin-3-yl)amino)pyridin-3-yl)-2-oxopyrrolidine-3-carboxamide] are 10 to 100 nM and 1 to 10 nM.
The like results for `CC1Oc2cc(N3CCCC3=O)ccc2-c2cnc(Nc3cncc(NC(=O)CCC(=O)O)c3)cc21` (centres unmarked) [Example 105, 4-((5-((5-methyl-8-(2-oxopyrrolidin-1-yl)-5H-chromeno[4,3-c]pyridin-3-yl)amino)pyridin-3-yl)amino)-4-oxobutanoic acid] were, in that order, 10 to 100 nM and 1 to 10 nM.
As to `CC1Oc2cc(N3CCCC3=O)ccc2-c2cnc(Nc3cncc(NC(=O)Cc4ccccc4)c3)cc21` (centres unmarked) [Example 107, N-(5-((5-methyl-8-(2-oxopyrrolidin-1-yl)-5H-chromeno[4,3-c]pyridin-3-yl)amino)pyridin-3-yl)-2-phenylacetamide], the IC50 in assay [1] lay within 10 to 100 nM; in assay [2], 1 to 10 nM.
The like results for `CC1Oc2cc(N3CCCC3=O)ccc2-c2cnc(Nc3cncc(NC(=O)c4ccc5cc[nH]c5c4)c3)cc21` (centres unmarked) [Example 108, N-(5-((5-methyl-8-(2-oxopyrrolidin-1-yl)-5H-chromeno[4,3-c]pyridin-3-yl)amino)pyridin-3-yl)-1H-indole-6-carboxamide] were, in that order, 10 to 100 nM and 1 to 10 nM.
`CC1Oc2cc(N3CCCC3=O)ccc2-c2cnc(Nc3cncc(NC(=O)c4ccc5ncoc5c4)c3)cc21` (centres unmarked) [Example 109, N-(5-((5-methyl-8-(2-oxopyrrolidin-1-yl)-5H-chromeno[4,3-c]pyridin-3-yl)amino)pyridin-3-yl)benzo[d]oxazole-6-carboxamide]: the IC50 in assay [1] and in assay [2] was 1 to 10 nM in each case.
`CC1Oc2cc(N3CCCC3=O)ccc2-c2cnc(Nc3cncc(NC(=O)c4ccc(NC=O)c(O)c4)c3)cc21` (centres unmarked) [Example 109A, 4-formamido-3-hydroxy-N-(5-((5-methyl-8-(2-oxopyrrolidin-1-yl)-5H-chromeno[4,3-c]pyridin-3-yl)amino)pyridin-3-yl)benzamide]: the IC50 in assay [1] is 10 to 100 nM; in assay [2], 1 to 10 nM.
The like results for `CC1Oc2cc(N3CCCC3=O)ccc2-c2cnc(Nc3cncc(NC(=O)CCc4ccccc4)c3)cc21` (centres unmarked) [Example 110, N-(5-((5-methyl-8-(2-oxopyrrolidin-1-yl)-5H-chromeno[4,3-c]pyridin-3-yl)amino)pyridin-3-yl)-3-phenylpropanamide] were, in that order, 10 to 100 nM and 1 to 10 nM.
On the same counts, the results for `CC1Oc2cc(N3CCCC3=O)ccc2-c2cnc(Nc3cncc(NC(=O)[C@H]4C[C@@H]4c4ccccc4)c3)cc21` (stereo partly drawn) [Example 111, (1S,2S)—N-(5-((5-methyl-8-(2-oxopyrrolidin-1-yl)-5H-chromeno[4,3-c]pyridin-3-yl)amino)pyridin-3-yl)-2-phenylcyclopropane-1-carboxamide] are 10 to 100 nM and 1 to 10 nM.
The like results for `CC1Oc2cc(N3CCCC3=O)ccc2-c2cnc(Nc3cncc(NC(=O)c4ccccn4)c3)cc21` (centres unmarked) [Example 112, N-(5-((5-methyl-8-(2-oxopyrrolidin-1-yl)-5H-chromeno[4,3-c]pyridin-3-yl)amino)pyridin-3-yl)picolinamide] were, in that order, 10 to 100 nM and 1 to 10 nM.
Regarding `CC1Oc2cc(N3CCCC3=O)ccc2-c2cnc(Nc3cncc(NC(=O)c4cccnc4)c3)cc21` (centres unmarked) [Example 113, N-(5-((5-methyl-8-(2-oxopyrrolidin-1-yl)-5H-chromeno[4,3-c]pyridin-3-yl)amino)pyridin-3-yl)nicotinamide], the IC50 in assay [1] lay in the range of 10 to 100 nM; in assay [2], 1 to 10 nM.
On the same counts, the results for `CC1Oc2cc(N3CCCC3=O)ccc2-c2cnc(Nc3cncc(NC(=O)c4ccncc4)c3)cc21` (centres unmarked) [Example 114, N-(5-((5-methyl-8-(2-oxopyrrolidin-1-yl)-5H-chromeno[4,3-c]pyridin-3-yl)amino)pyridin-3-yl)isonicotinamide] are 10 to 100 nM and 1 to 10 nM.
